One assay concerns HIV. In words: Anti-HIV evaluation by MTT-tetrazolium method (inhibition of CPE in MT-2 / CEM-SS cells). The assay is classed as cell-based. Particulars: Human immunodeficiency virus 1, CEM-SS; read-out: Antiviral Activities (EC50) HIV. Here is the method: This example illustrates the anti-HIV activity of various coumarin and chromene compounds which were evaluated using the published MTT-tetrazolium methods^8. Retroviral agents AZT and DDC were used as controls for comparison purposes.
The cells used for screening were the MT-2 and the human T4-lymphoblastoid cell line, CEM-SS, and were grown in RPMI 1640 medium supplemented with 10% fetal (v/v) heat-inactivated fetal calf serum and also containing 100 units/mL penicillin, 100 μg/mL streptomycin, 25 mM HEPES and 20 μg/mL gentamicin. The medium used for dilution of drugs and maintenance of cultures during the assay was the same as above. The HTLV-IIIB and HTLV-RF were propagated in CEM-SS. The appropriate amounts of the pure compounds for anti-HIV evaluations were dissolved in DMSO, then diluted in medium to the desired initial concentration. The concentrations (M medium) employed were […]; 0.001 μM; 0.0032 μM; 0.01 μM; 0.032 μM; 0.1 μM; 0.32 μM; 1 μM; 3.2 μM; 10 μM; 32 μM; and 100 μM. Each dilution was added to plates in the amount of 100 μL/well. Drugs were tested in triplicate wells per dilution with infected cells while in duplicate wells per dilution with uninfected cells for evaluation of cytotoxicity. On day 6 (CEM-SS cells) and day 7 (MT-2 cells) post-infection, the viable cells were measured with a tetrazolium salt, MTT (5 mg/mL), added to the test plates. A solution of 20% SDS in 0.001 N HCl is used to dissolve the MTT formazan produced. The optical density value was a function of the amount of formazan produced which was proportional to the number of viable cells. The percent inhibition of CPE per drug concentration was measured as a test over control and expressed in percent (T/C %).
(In general: Tetrazolium dyes change colour on reduction, which living cells bring about.)

A further assay has as its system EBV. Put plainly: EBV assay: superinfection of Raji or Daudi cells with P3HR-1, immunofluorescence for EA and VCA. The conditions noted are these: human gammaherpesvirus 4; read-out: Antiviral Activities (EC50) EBV. The assay is classed as cell-based, Epstein-Barr Virus (P3HR-1). The source says:
There are two prototypes of infectious EBV. One is exemplified by the virus derived from supernatant fluids of the P3HR-1cell line. This cell line produces nontransforming virus that causes the production of early antigen (EA) after primary infection or superinfection of B cell lines. The other prototype is exemplified by the B-95-8 virus. This virus immortalized cord blood lymphocytes and induced tumors in marmosets. […] The virus used in our assays is P3HR-1.
Ramos is an exceptional B cell line derived from Burkitt's lymphoma tumor but containing no detectable EBV genome copies and is EBNA negative. Ramos/AW was obtained by in vitro infection of Ramos with the P3HR-1 virus and contains one resident EBV genome copy/cell. Raji is a Burkitt's lymphoma cell line containing 60 EBV genomes/cell, and will be the primary cell used for screening antiviral activity against EBV EA expression. Daudi is a low level producer that contains 152 EBV genome copies/cell. It spontaneously expresses EBV EA in 0.25%-0.5% of the cells. It will be used in follow-up studies to confirm activity. These cell lines respond to superinfection by EBV by expressing EA(D), EA(R), and VCA. All cell lines are maintained in RPMI-1640 medium supplemented by 10% FCS, L-glutamine and 100 μg/mL gentamicin. The cultures are fed twice weekly and the cell concentration adjusted to 3×10^5/mL. The cells are kept at 37° C. in a humidified atmosphere with 5% CO2.
Cells are infected with the P3HR-1 strain of EBV and the drugs to be tested are added after adsorption (45 minutes at 37° C.) and washing of the cell cultures. The cultures are incubated for two days in complete medium to allow viral gene expression. Following the 48 hr incubation period, the number of cells of each sample are counted and smears made. Monoclonal antibodies to the different EA components and VCA are then added to the cells incubated and washed. This is followed by a fluorescein conjugated rabbit anti-mouse Ig antibody; and the number of fluorescence positive cells in the smears are counted. The total number of cells in the cultures positive for EA or VCA are then calculated and compared.

The test system of the next assay is HBV. In words: HBV replication in cultures of 2.2.15 cells (HBV DNA blot hybridization). The assay is classed as cell-based. Here is the method:
Test compounds are then added daily for a continuous 9 day period. Culture medium (changed daily during the treatment period) is collected and stored for analysis of extracellular (virion) HBV DNA after 0, 3, 6, and 9 days of treatment. Treated cells are lysed 24 hours following day 9 of treatment for the analysis of intracellular HBV genomic forms. HBV DVA is then analyzed in a quantitative and qualitative manner for overall levels of HBV DNA (both extracellular and intracellular DNA) and the relative rate of HBV replication (intracellular DNA).
Both intracellular and extracellular HBV DNA are analyzed in order to (i) allow for verification of compound efficacy and (ii) provide possible data on the target site in the HBV replication pathway for the compound from examination of the pattern of viral replicative forms. The culture medium is changed daily during the treatment period to (i) prevent the buildup of potentially toxic metabolites derived from test compounds and (ii) provide an analysis of HBV virion production during discrete 24-hour intervals which enables a quantitative comparison of any effect on virion production.
The analysis of HBV DNA is performed using blot hybridization techniques (Southern and slot blot) and [^32P]-labeled HBV-specific probes. HBV DNA levels are measured by comparison to known amounts of HBV DNA standards applied to every nitrocellulose membrane (gel or slot blot). An AMBIS beta scanner, which measures the radioactive decay of the hybridized probes directly from the nitrocellulose membranes, is used for the quantitative analysis. Standard curves, generated by multiple analyses, are used to correlate CPM measurements made by the beta scanner with relative levels of target HBV DNA. The levels of HBV virion DNA released into the culture medium are analyzed by a slot blot hybridization procedure. HBV DNA levels are then compared to those at Day 0 to determine the effect of drug treatment.
The levels of RI and episomal monomers are used as an indicator of the relative level of HBV replication. Integrated HBV DNA is used to normalize the relative amounts of DNA in each lane because the levels of this class of HBV DNA would be expected to remain constant on a per cell basis. […] Inhibition of HBV DNA replication is indicated by the loss of RI without changes in the level of integrated HBV DNA.

The test system of the next assay is Measles Virus. In words: Measles virus antiviral assay (CPE inhibition, neutral red uptake, virus yield). The assay is classed as cell-based, Measles virus strain CC. The conditions noted are these: Measles morbillivirus.
In assay [1] the test system is Respiratory Syncytial Virus. Put plainly: Respiratory syncytial virus antiviral assay (CPE inhibition, neutral red uptake). The assay is classed as cell-based, Respiratory syncytial virus strain Utah 89. Particulars: human respiratory syncytial virus.
Another assay concerns Rhinovirus. In words: Rhinovirus antiviral assay (CPE inhibition, neutral red uptake, virus yield). The assay is classed as cell-based. The conditions noted are these: Enterovirus.
In another assay the test system is VZV. In words: VZV plaque reduction assay in human foreskin fibroblast cells. The assay is classed as cell-based, Varicella Zoster Virus (Ellen strain). The conditions noted are these: Human alphaherpesvirus 3, Fibroblast; read-out: Antiviral Activities (EC50) VZV. Here is the method: [table] Two days prior to use, HFF cells are plated into six-well plates and incubated at 37° C. with 5% CO2 and 90% humidity. On the date of assay, the drug is made up at twice the desired concentration in 2×MEM and then serially diluted 1:5 in 2×MEM using six concentrations of drug. […] The media is then aspirated from the wells and 0.2 mL of virus is added to each well in duplicate with 0.2 mL of media being added to drug toxicity wells. The plates are then incubated for one hour with shaking every fifteen minutes. […] The drug agarose mixture is applied to each well in 2 mL volume and the plates then incubated for three days, after which the cells were stained with a 1.5% solution of neutral red. At the end of 4-6 hr incubation period, the stain is aspirated, and plaques counted using a stereomicroscope at 10× magnification. The procedure is essentially the same as for the HSV plaque assay described above with two exceptions: 1. After addition of the drug, the plates are incubated for ten days. 2.

[2] abbreviates: Hepatitis B virus; read-out: Antiviral Activities (EC50) HBV.
[3] abbreviates: CPE inhibition, read-out: Antiviral Activities (EC50) Measles (CPE).
[4] abbreviates: neutral red (NR) dye uptake, read-out: Antiviral Activities (EC50) Measles (NR).
[5] abbreviates: readout not stated, read-out: Antiviral Activities (EC50) Respiratory Syncitial.
Setting [6] is: readout not stated, read-out: Antiviral Activities (EC50) Rhinovirus.
Where [7] appears, read: CPE inhibition, read-out: Antiviral Activities (EC50) Respiratory Syncitial (CPE).
The mark [8] stands for this setting: neutral red (NR) dye uptake, read-out: Antiviral Activities (EC50) Respiratory Syncitial (NR).
Setting [9] is: CPE inhibition, read-out: Antiviral Activities (EC50) Rhinovirus (CPE).
Where [10] appears, read: neutral red (NR) dye uptake, read-out: Antiviral Activities (EC50) Rhinovirus (NR).

Converted amounts (≈) assume the structure as drawn. Like-named read-outs stand apart in the source and are kept apart here. Bounds are passed on as bounds.

As a reminder, the EC50 is the midpoint of the concentration-response curve. Regarding `CCCc1cc(=O)oc2cc(OC(=O)CC)cc(O)c12`, the EC50 in the assay on HIV was greater than 5 µg/mL; with EBV, greater than 50 µg/mL; with HBV (setting [2]) it was greater than 3 µg/mL; in the assay on Measles Virus (setting [3]), 2 µg/mL (≈ 7.24 µM); in the assay on Measles Virus (setting [4]), 1 µg/mL (≈ 3.62 µM); in assay [1] (setting [5]), 3 µg/mL (≈ 10.9 µM). In addition, the EC50 in the assay with Rhinovirus (setting [6]) is greater than 100 µg/mL; in the assay on VZV, greater than 20 µg/mL.
Turning to `CCCc1cc(=O)oc2cc(OS(=O)(=O)c3ccc(C)cc3)cc(O)c12`, the EC50 with HIV is greater than 2 µg/mL; in the assay on EBV, 2.1 µg/mL (≈ 5.61 µM); in the assay on HBV (setting [2]), 2.1 µg/mL (≈ 5.61 µM); with Measles Virus (setting [3]), 1 µg/mL (≈ 2.67 µM); with Measles Virus (setting [4]), 1 µg/mL (≈ 2.67 µM); in assay [1] (setting [7]) it was 3 µg/mL (≈ 8.01 µM). In addition, the EC50 in assay [1] (setting [8]) was 2 µg/mL (≈ 5.34 µM); in the assay on Rhinovirus (setting [9]) it was 1 µg/mL (≈ 2.67 µM); in the assay with Rhinovirus (setting [10]), 2 µg/mL (≈ 5.34 µM); in the assay on VZV, greater than 100 µg/mL.
With `CCCc1cc(=O)oc2cc(OC(=O)C(C)(C)C)cc(OC(=O)C(C)(C)C)c12`, the EC50 with HIV was 2.2 µg/mL (≈ 5.66 µM); with EBV, 3.7 µg/mL (≈ 9.52 µM); with HBV (setting [2]) it was greater than 4 µg/mL; with Measles Virus (setting [3]), 2 µg/mL (≈ 5.15 µM); in the assay on Measles Virus (setting [4]), 3 µg/mL (≈ 7.72 µM); in assay [1] (setting [5]), greater than 100 µg/mL. Besides, the EC50 with Rhinovirus (setting [6]) is 20 µg/mL (≈ 51.5 µM); with VZV, 5.6 µg/mL (≈ 14.4 µM).
In the case of `CCCc1cc(=O)oc2cc(OS(=O)(=O)c3ccc(C)cc3)cc(OS(=O)(=O)c3ccc(C)cc3)c12`, the EC50 was greater than 3 µg/mL in the assay with HIV; greater than 50 µg/mL with EBV; greater than 5 µg/mL with HBV (Hepatitis B virus, read-out: Antiviral Activities (EC50) HBV); 3 µg/mL (≈ 5.68 µM) in the assay with Measles Virus (setting [3]); 1 µg/mL (≈ 1.89 µM) in the assay on Measles Virus (setting [4]); 3 µg/mL (≈ 5.68 µM) in the assay with Measles Virus (read-out: Antiviral Activities (EC50) Measles (virus yield)). For the same molecule, the EC50 in assay [1] (setting [7]) was 2 µg/mL (≈ 3.78 µM); in assay [1] (setting [8]), 1 µg/mL (≈ 1.89 µM); with Rhinovirus (setting [9]), 2 µg/mL (≈ 3.78 µM); in the assay on Rhinovirus (setting [10]) it was 1 µg/mL (≈ 1.89 µM); in the assay on VZV, greater than 20 µg/mL.
